In PubChem BioAssay (NCI):
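Where inhibition never reached the appropriate level, the endpoint shown equals the highest concentration tested. Otherwise, values were interpolated linearly from a five-concentration, 48-hour dose response in 96-well plates. TGI: total growth inhibition.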

What was measured:
Experiment in all cases: inhibition of tumour cell growth, NCI panel, 48 h
786-0 renal = tested on: 786-0 renal
A498 renal = tested on: A498 renal
A549 NSCLC = tested on: A549 NSCLC
ACHN renal = tested on: ACHN renal
BT-549 breast = tested on: BT-549 breast
CAKI-1 renal = tested on: CAKI-1 renal
CCRF-CEM leukemia = tested on: CCRF-CEM leukemia
COLO 205 colon = tested on: COLO 205 colon
DU-145 prostate = tested on: DU-145 prostate
EKVX NSCLC = tested on: EKVX NSCLC
HCC-2998 colon = tested on: HCC-2998 colon
HCT-116 colon = tested on: HCT-116 colon
HCT-15 colon = tested on: HCT-15 colon
HL-60(TB) leukemia = tested on: HL-60(TB) leukemia
HOP-62 NSCLC = tested on: HOP-62 NSCLC
HOP-92 NSCLC = tested on: HOP-92 NSCLC
HS 578T breast = tested on: HS 578T breast
HT29 colon = tested on: HT29 colon
IGROV1 ovarian = tested on: IGROV1 ovarian
K-562 leukemia = tested on: K-562 leukemia
KM12 colon = tested on: KM12 colon
LOX IMVI melanoma = tested on: LOX IMVI melanoma
M14 melanoma = tested on: M14 melanoma
MALME-3M melanoma = tested on: MALME-3M melanoma
MCF7 breast = tested on: MCF7 breast
MDA-MB-231 breast = tested on: MDA-MB-231 breast
MDA-MB-435 = tested on: MDA-MB-435
MDA-N = tested on: MDA-N
MOLT-4 leukemia = tested on: MOLT-4 leukemia
NCI-H226 lung = tested on: NCI-H226 lung
NCI-H23 lung = tested on: NCI-H23 lung
NCI-H460 lung = tested on: NCI-H460 lung
NCI-H522 lung = tested on: NCI-H522 lung
NCI/ADR-RES ovarian = tested on: NCI/ADR-RES ovarian
OVCAR-3 ovarian = tested on: OVCAR-3 ovarian
OVCAR-4 ovarian = tested on: OVCAR-4 ovarian
OVCAR-5 ovarian = tested on: OVCAR-5 ovarian
OVCAR-8 ovarian = tested on: OVCAR-8 ovarian
PC-3 prostate = tested on: PC-3 prostate
RPMI-8226 leukemia = tested on: RPMI-8226 leukemia
RXF 393 renal = tested on: RXF 393 renal
SF-268 CNS = tested on: SF-268 CNS
SF-295 CNS = tested on: SF-295 CNS
SF-539 CNS = tested on: SF-539 CNS
SK-MEL-2 melanoma = tested on: SK-MEL-2 melanoma
SK-MEL-28 melanoma = tested on: SK-MEL-28 melanoma
SK-MEL-5 melanoma = tested on: SK-MEL-5 melanoma
SK-OV-3 ovarian = tested on: SK-OV-3 ovarian
SN12C renal = tested on: SN12C renal
SNB-19 CNS = tested on: SNB-19 CNS
SR leukemia = tested on: SR leukemia
SW-620 colon = tested on: SW-620 colon
T-47D breast = tested on: T-47D breast
TK-10 renal = tested on: TK-10 renal
U251 CNS = tested on: U251 CNS
UACC-257 melanoma = tested on: UACC-257 melanoma
UACC-62 melanoma = tested on: UACC-62 melanoma
UO-31 renal = tested on: UO-31 renal
SNB-75 CNS = tested on: SNB-75 CNS

O=C(COC(c1ccc(F)cc1)c1ccc(F)cc1)N1CCN(CCCc2ccccc2)CC1
TGI (786-0 renal): 14.1 µM
TGI (A498 renal): 12.6 µM
TGI (A549 NSCLC): 15.2 µM
TGI (ACHN renal): 13.7 µM
TGI (BT-549 breast): 13.7 µM
TGI (CAKI-1 renal): 4.15 µM
TGI (CCRF-CEM leukemia): > 100 µM
TGI (COLO 205 colon): 3.36 µM
TGI (DU-145 prostate): 14.5 µM
TGI (EKVX NSCLC): 17.3 µM
TGI (HCC-2998 colon): 13 µM
TGI (HCT-116 colon): 10.5 µM
TGI (HCT-15 colon): 11.4 µM
TGI (HL-60(TB) leukemia): 14.1 µM
TGI (HOP-62 NSCLC): 19.4 µM
TGI (HOP-92 NSCLC): 8.02 µM
TGI (HS 578T breast): 59.6 µM
TGI (HT29 colon): 11.2 µM
TGI (IGROV1 ovarian): 19 µM
TGI (K-562 leukemia): > 100 µM
TGI (KM12 colon): 15.9 µM
TGI (LOX IMVI melanoma): 16.2 µM
TGI (M14 melanoma): 16.2 µM
TGI (MALME-3M melanoma): 17.4 µM
TGI (MCF7 breast): 12.6 µM
TGI (MDA-MB-231 breast): 11.3 µM
TGI (MDA-MB-435): 13 µM
TGI (MDA-N): 13.4 µM
TGI (MOLT-4 leukemia): > 100 µM
TGI (NCI-H226 lung): 8.73 µM
TGI (NCI-H23 lung): 7.91 µM
TGI (NCI-H460 lung): 13.5 µM
TGI (NCI-H522 lung): 18.6 µM
TGI (NCI/ADR-RES ovarian): 12.8 µM
TGI (OVCAR-3 ovarian): 13.7 µM
TGI (OVCAR-4 ovarian): 12.6 µM
TGI (OVCAR-5 ovarian): 14.7 µM
TGI (OVCAR-8 ovarian): 14.6 µM
TGI (PC-3 prostate): 11.9 µM
TGI (RPMI-8226 leukemia): 26.3 µM
TGI (RXF 393 renal): 8.1 µM
TGI (SF-268 CNS): 16.4 µM
TGI (SF-295 CNS): 13 µM
TGI (SF-539 CNS): 17.3 µM
TGI (SK-MEL-2 melanoma): 15.4 µM
TGI (SK-MEL-28 melanoma): > 100 µM
TGI (SK-MEL-5 melanoma): 6.9 µM
TGI (SK-OV-3 ovarian): 21.5 µM
TGI (SN12C renal): 11.3 µM
TGI (SNB-19 CNS): 15.2 µM
TGI (SR leukemia): 18.6 µM
TGI (SW-620 colon): > 100 µM
TGI (T-47D breast): 9.35 µM
TGI (TK-10 renal): 17.8 µM
TGI (U251 CNS): 14.8 µM
TGI (UACC-257 melanoma): 11.3 µM
TGI (UACC-62 melanoma): 16.5 µM
TGI (UO-31 renal): 3.56 µM

O=C1C(=O)c2ccccc2C=C1[N+](=O)[O-]
TGI (786-0 renal): > 100 µM
TGI (A498 renal): > 100 µM
TGI (A549 NSCLC): > 100 µM
TGI (ACHN renal): > 100 µM
TGI (BT-549 breast): > 100 µM
TGI (CAKI-1 renal): > 100 µM
TGI (CCRF-CEM leukemia): 86.1 µM
TGI (COLO 205 colon): > 100 µM
TGI (DU-145 prostate): > 100 µM
TGI (EKVX NSCLC): 56.8 µM
TGI (HCC-2998 colon): > 100 µM
TGI (HCT-116 colon): 69.9 µM
TGI (HCT-15 colon): > 100 µM
TGI (HL-60(TB) leukemia): 54.2 µM
TGI (HOP-62 NSCLC): > 100 µM
TGI (HOP-92 NSCLC): > 100 µM
TGI (HS 578T breast): > 100 µM
TGI (HT29 colon): > 100 µM
TGI (IGROV1 ovarian): > 100 µM
TGI (K-562 leukemia): > 100 µM
TGI (KM12 colon): > 100 µM
TGI (LOX IMVI melanoma): > 100 µM
TGI (M14 melanoma): > 100 µM
TGI (MCF7 breast): 78.9 µM
TGI (MDA-MB-231 breast): 66.5 µM
TGI (MDA-MB-435): 31.8 µM
TGI (MDA-N): 39.2 µM
TGI (MOLT-4 leukemia): 65.4 µM
TGI (NCI-H226 lung): > 100 µM
TGI (NCI-H23 lung): > 100 µM
TGI (NCI-H460 lung): > 100 µM
TGI (NCI-H522 lung): > 100 µM
TGI (NCI/ADR-RES ovarian): 76.4 µM
TGI (OVCAR-3 ovarian): 85.2 µM
TGI (OVCAR-4 ovarian): > 100 µM
TGI (OVCAR-5 ovarian): > 100 µM
TGI (OVCAR-8 ovarian): > 100 µM
TGI (PC-3 prostate): > 100 µM
TGI (RPMI-8226 leukemia): > 100 µM
TGI (RXF 393 renal): 78.9 µM
TGI (SF-268 CNS): > 100 µM
TGI (SF-295 CNS): > 100 µM
TGI (SF-539 CNS): > 100 µM
TGI (SK-MEL-2 melanoma): 99.5 µM
TGI (SK-MEL-28 melanoma): > 100 µM
TGI (SK-MEL-5 melanoma): 46.4 µM
TGI (SK-OV-3 ovarian): > 100 µM
TGI (SN12C renal): > 100 µM
TGI (SNB-19 CNS): > 100 µM
TGI (SNB-75 CNS): > 100 µM
TGI (SR leukemia): > 100 µM
TGI (SW-620 colon): > 100 µM
TGI (T-47D breast): > 100 µM
TGI (TK-10 renal): > 100 µM
TGI (U251 CNS): > 100 µM
TGI (UACC-257 melanoma): 58.9 µM
TGI (UACC-62 melanoma): 80.1 µM
TGI (UO-31 renal): > 100 µM

CCOc1cc(NC(C)=O)ccc1C(=O)N/N=C/c1ccco1
TGI (786-0 renal): > 100 µM
TGI (A498 renal): > 100 µM
TGI (ACHN renal): > 100 µM
TGI (BT-549 breast): > 100 µM
TGI (CAKI-1 renal): > 100 µM
TGI (CCRF-CEM leukemia): > 100 µM
TGI (COLO 205 colon): > 100 µM
TGI (DU-145 prostate): > 100 µM
TGI (EKVX NSCLC): > 100 µM
TGI (HCC-2998 colon): > 100 µM
TGI (HCT-116 colon): > 100 µM
TGI (HCT-15 colon): > 100 µM
TGI (HL-60(TB) leukemia): > 100 µM
TGI (HOP-62 NSCLC): > 100 µM
TGI (HOP-92 NSCLC): > 100 µM
TGI (HS 578T breast): > 100 µM
TGI (HT29 colon): > 100 µM
TGI (IGROV1 ovarian): > 100 µM
TGI (K-562 leukemia): > 100 µM
TGI (KM12 colon): > 100 µM
TGI (LOX IMVI melanoma): > 100 µM
TGI (MALME-3M melanoma): > 100 µM
TGI (MCF7 breast): > 100 µM
TGI (MDA-MB-231 breast): > 100 µM
TGI (MDA-MB-435): > 100 µM
TGI (MDA-N): > 100 µM
TGI (MOLT-4 leukemia): 74.6 µM
TGI (NCI-H226 lung): > 100 µM
TGI (NCI-H23 lung): > 100 µM
TGI (NCI-H460 lung): > 100 µM
TGI (NCI-H522 lung): > 100 µM
TGI (NCI/ADR-RES ovarian): > 100 µM
TGI (OVCAR-3 ovarian): > 100 µM
TGI (OVCAR-4 ovarian): > 100 µM
TGI (OVCAR-5 ovarian): > 100 µM
TGI (OVCAR-8 ovarian): > 100 µM
TGI (PC-3 prostate): > 100 µM
TGI (RPMI-8226 leukemia): > 100 µM
TGI (RXF 393 renal): > 100 µM
TGI (SF-268 CNS): > 100 µM
TGI (SF-295 CNS): > 100 µM
TGI (SF-539 CNS): > 100 µM
TGI (SK-MEL-2 melanoma): > 100 µM
TGI (SK-MEL-28 melanoma): > 100 µM
TGI (SK-MEL-5 melanoma): > 100 µM
TGI (SK-OV-3 ovarian): > 100 µM
TGI (SN12C renal): > 100 µM
TGI (SNB-75 CNS): > 100 µM
TGI (SR leukemia): 31.3 µM
TGI (SW-620 colon): > 100 µM
TGI (T-47D breast): > 100 µM
TGI (TK-10 renal): > 100 µM
TGI (UACC-257 melanoma): > 100 µM
TGI (UACC-62 melanoma): > 100 µM
